Measurements published in ChEMBL document CHEMBL1201862, “PubChem BioAssay data set” (2004).
Active and inactive are the calls of the source.

biological target: T1, Heat shock factor protein 1 (Mus musculus, UniProt P38532); assay: HSF1 potentiators in luciferase reporter cells, confirmation, cell-based, NIH3T3, luminescence, dose retest (AID 435004); type: functional; conditions: not given;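 note: stress induced by proteasome inhibitor MG132 added 30 min after compound; luciferase reporter driven by HSF1 response element in NIH3T3 cells; actives raise luminescence as potentiators of the MG132 stress response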
T1 sequence (P38532 whole entry): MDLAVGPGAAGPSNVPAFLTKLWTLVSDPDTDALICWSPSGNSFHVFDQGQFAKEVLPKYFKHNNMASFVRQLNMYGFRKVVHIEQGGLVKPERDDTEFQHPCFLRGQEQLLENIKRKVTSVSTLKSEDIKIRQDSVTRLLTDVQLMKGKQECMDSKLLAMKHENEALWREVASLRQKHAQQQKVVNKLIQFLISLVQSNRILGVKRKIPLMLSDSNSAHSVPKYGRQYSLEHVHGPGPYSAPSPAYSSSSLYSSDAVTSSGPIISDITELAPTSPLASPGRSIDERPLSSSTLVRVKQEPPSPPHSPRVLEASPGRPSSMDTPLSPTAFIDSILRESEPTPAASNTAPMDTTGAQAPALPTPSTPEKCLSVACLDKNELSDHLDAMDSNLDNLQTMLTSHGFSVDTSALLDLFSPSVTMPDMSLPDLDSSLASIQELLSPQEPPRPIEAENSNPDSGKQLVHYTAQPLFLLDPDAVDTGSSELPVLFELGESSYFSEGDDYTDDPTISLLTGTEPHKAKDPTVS

| Structure (SMILES) | EC50 |
| --- | --- |
| CC1CCCCN1C(=O)COc1ccccc1F (stereo not drawn) | > 260 µM (inactive) |
| CN=C(S)N(Cc1ccc(Cl)cc1)Cc1cccs1 | > 260 µM (inactive) |
| COc1cccc(/C=C2\N=C(SC)SC2=O)c1OC | 241 µM (active) |
| COC(CNC(=O)C1CCCN(S(=O)(=O)c2c(C)noc2/C=C/c2cccs2)C1)OC (stereo not drawn) | 110 µM (active) |
| N#C/C(=C\c1ccc(Cl)cc1)c1nc2ccccc2o1 | > 260 µM (inactive) |
| COc1ccc(OCc2nnnn2-c2ccccc2)cc1 | > 260 µM (inactive) |
| NC1=NC(=O)/C(=C/c2cn(Cc3ccccc3)c3ccccc23)S1 | > 260 µM (inactive) |
| O=C(CC1S/C(=N\CCc2ccccc2)N(/N=C/c2cccs2)C1=O)Nc1ccc(Cl)cc1 (stereo not drawn) | > 260 µM (inactive) |

More lines, now with the values ahead:

| EC50 | Structure (SMILES) |
| --- | --- |
| > 260 µM (inactive) | Nc1nnc(SCC(=O)Nc2cccc3ccccc23)s1 |
| > 260 µM (inactive) | Cc1cc(C)c(S(=O)(=O)Nc2cccc(/C=C/C(=O)O)c2)c(C)c1 |
| > 260 µM (inactive) | Cc1ccc(NNC(=O)c2ccno2)c(C)c1 |
| > 260 µM (inactive) | CCOC(=O)NC(=O)/C(C#N)=N/Nc1c(F)cccc1F |

tested on: not listed separately; assay: inhibitors of intracellular T. cruzi replication, confirmation, NIH3T3 host cells, beta-gal luminescence (AID 2044); type: functional, cell-based; conditions: not given;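 note: intracellular parasites grown in NIH/3T3 mouse fibroblasts as host cells; luminescent beta-galactosidase reporter signal from transgenic T. cruzi replicating inside host cells; inhibitors lower the luminescence signal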

| Structure (SMILES) | EC50 |
| --- | --- |
| CCOC(=O)C1CCN(c2ncnc3c2c(-c2ccccc2)cn3-c2ccccc2)CC1 | 2.23 µM (active) |

biological target: FAD-linked sulfhydryl oxidase ALR (Homo sapiens, UniProt P55789); assay: inhibitors of human ALR sulfhydryl oxidase, dose response, biochemical, H2O2 detection, luminescence, cherry-pick (AID 493248); conditions: not given
Sequence (P55789 whole entry): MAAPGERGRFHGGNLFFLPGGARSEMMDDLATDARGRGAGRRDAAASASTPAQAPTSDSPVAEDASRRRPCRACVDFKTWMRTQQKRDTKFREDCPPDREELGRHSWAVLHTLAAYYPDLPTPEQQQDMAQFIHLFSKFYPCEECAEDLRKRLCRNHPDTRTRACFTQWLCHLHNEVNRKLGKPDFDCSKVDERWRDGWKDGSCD

| Structure (SMILES) | AC50 |
| --- | --- |
| Nc1n[nH]c(N2CCN(c3cccc(Cl)c3)CC2)n1 | 1.25 µM (active) |
| N#Cc1ccsc1NC(=O)CN1CCN(c2ccccc2O)CC1 | 1.46 µM (active) |
| CC1CCCCN1c1ccc(N)cc1C(N)=O (stereo not drawn) | 11.1 µM (active) |
| COc1ccc(/C=N/Nc2ccccn2)c(OC)c1OC | 0.484 µM (active) |
| C/C(=N\NC(=O)c1cccc(N2CCCC2=O)c1)c1ccc(N)cc1 | 1.61 µM (active) |

The next lines start with the values.

| AC50 | Structure (SMILES) |
| --- | --- |
| 0.705 µM (active) | Cc1ccc(Nc2c(-c3ccccc3O)nc3cnccn23)cc1 |
| 5.32 µM (active) | Cc1c(C)c(C)c(C(=O)c2ccc(NC(=O)c3ccccc3C(=O)O)cc2)c(C)c1C |
| 3.48 µM (active) | Cc1ccc(NNC(=O)c2ccno2)c(C)c1 |
| 5.66 µM (active) | Cc1cc(C)nc(NNC(=O)c2ccccc2O)n1 |
| 7.34 µM (active) | CC(=O)N1CCN=C1SCc1cccc(C(F)(F)F)c1 |
| 20.7 µM (active) | Cc1ccc(Sc2ccc(S(=O)(=O)Nc3ccc(C(=O)O)cc3)cc2)cc1C |
| 0.095 µM (active) | O=C(c1cc2ccccc2o1)N1CCN=C1SCc1cccnc1 |

tested on: not listed separately; assay: cytotoxicity toward NIH3T3 fibroblasts, dose response, counter-screen, cell-based, ATP luminescence, mouse fibroblasts (AID 2010); type: functional; conditions: not given;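 note: cells exposed to compound for about 90 hours before reading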

| Structure (SMILES) | EC50 |
| --- | --- |
| CCOC(=O)C1CCN(c2ncnc3c2c(-c2ccccc2)cn3-c2ccccc2)CC1 | > 60 µM (not active) |

biological target: Cytochrome P450 2D6 (Homo sapiens, UniProt P10635); conditions: not given;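 note: CYP2D6 member of a cytochrome P450 panel assay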
Sequence (P10635 whole entry): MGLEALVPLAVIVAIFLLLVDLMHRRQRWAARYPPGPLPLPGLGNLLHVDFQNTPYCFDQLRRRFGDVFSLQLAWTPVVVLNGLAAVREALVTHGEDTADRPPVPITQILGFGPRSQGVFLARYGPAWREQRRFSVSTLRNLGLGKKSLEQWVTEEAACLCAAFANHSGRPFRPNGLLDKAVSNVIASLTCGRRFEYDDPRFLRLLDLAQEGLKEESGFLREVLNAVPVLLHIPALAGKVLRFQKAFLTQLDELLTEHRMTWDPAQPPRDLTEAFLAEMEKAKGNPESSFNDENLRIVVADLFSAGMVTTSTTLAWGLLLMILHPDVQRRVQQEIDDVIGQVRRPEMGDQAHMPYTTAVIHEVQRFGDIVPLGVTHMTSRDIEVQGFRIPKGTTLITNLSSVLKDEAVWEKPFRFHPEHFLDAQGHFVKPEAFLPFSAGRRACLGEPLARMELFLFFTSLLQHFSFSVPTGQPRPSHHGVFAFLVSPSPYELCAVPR

| AC50 | Structure (SMILES) |
| --- | --- |
| 20 µM (inconclusive) | O=C(Nc1cccc(NC(=O)c2ccccc2[N+](=O)[O-])n1)c1ccccc1[N+](=O)[O-] |
| 15.8 µM (inconclusive) | O=C(c1csnn1)N1CCC2(CC1)CN(c1ccccc1)C2 |
| 20 µM (inconclusive) | Cc1ccccc1-c1nc(N2CCNCC2)c2ccccc2n1 |
| 1.26 µM (inconclusive) | CN(C)c1ncc2nc(-c3ccc(F)cc3)c(=O)n(C[C@H]3CCCO3)c2n1 |
| 20 µM (inconclusive) | COc1cccc(Cn2c(=O)c(CCc3ccccc3)nc3cnc(N4CCN(C)CC4)nc32)c1 |

tested on: not listed separately; assay: Luminescence Cell-Based Dose Retest to Confirm Inhibitors of Cancer Stem Cells. [Related pubchem assays (depositor defined):AID2717, AID2721]; type: functional; conditions: Homo sapiens

| Structure (SMILES) | AC50 |
| --- | --- |
| CCOC(=O)C1CCN(c2ncnc3c2c(-c2ccccc2)cn3-c2ccccc2)CC1 | 3.11 µM (active) |

biological target: Cytochrome P450 2C19 (Homo sapiens, UniProt P33261); assay: Cytochrome panel assay with activity outcomes. Panel member name: p450-cyp2c19 Compounds with AC50 equal or less than 10 uM are considered active; type: functional; conditions: read-out: AC50
Sequence (P33261 whole entry): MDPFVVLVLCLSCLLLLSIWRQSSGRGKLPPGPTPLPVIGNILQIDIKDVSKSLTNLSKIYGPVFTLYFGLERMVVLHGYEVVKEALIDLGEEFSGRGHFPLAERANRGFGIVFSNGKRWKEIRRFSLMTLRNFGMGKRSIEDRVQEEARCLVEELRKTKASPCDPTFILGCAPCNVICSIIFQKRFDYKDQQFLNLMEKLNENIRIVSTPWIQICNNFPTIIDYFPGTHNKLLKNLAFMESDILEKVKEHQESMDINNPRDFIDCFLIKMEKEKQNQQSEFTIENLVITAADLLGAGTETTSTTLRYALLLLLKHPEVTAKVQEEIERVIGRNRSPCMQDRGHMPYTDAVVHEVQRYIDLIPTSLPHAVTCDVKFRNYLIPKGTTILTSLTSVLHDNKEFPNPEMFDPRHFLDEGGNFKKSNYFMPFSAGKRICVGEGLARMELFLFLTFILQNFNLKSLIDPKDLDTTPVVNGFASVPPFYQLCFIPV

| AC50 | Structure (SMILES) |
| --- | --- |
| 39.8 µM (inconclusive) | O=C(c1csnn1)N1CCC2(CC1)CN(c1ccccc1)C2 |
